Assay results reported in patent US4511390A, “Aralkylcarbamoyl peptide alcohols” (E. I. Du Pont de Nemours and Company, priority 1983, dated 1985).
Values joined by “and” are separate entries in the source; they are usually repeats but may differ in a detail not shown here. Identical values can stand only once. One block for each molecule: values may come before it.

Legend:
corn root sections [1] = experiment: Nitrate ion uptake by corn root sections measured with radioactive chlorate ion (36ClO3-) as mimic; assay type: cell-based, Corn (Pioneer Hybrid 3320); conditions: 50 ppm test compound; for activation at 50 ppm: Zea mays, read-out: Ion Uptake (percent increase over control) 36ClO3-
Method: (§1) Corn (Pioneer Hybrid 3320), wheat (Arther), sorghum (SC-599-6), barley (CM-721), rice (m101), and cotton (Tamcot SP-37) seeds were disinfected with a 1% sodium hypochlorite solution and placed in 20.3 cm×30.5 cm×5.1 cm Pyrex glass utility trays which were lined with 4 layers of bleached paper towels and irrigated with 150 mL of 0.2 mM CaCl2 solution. The trays were covered with plastic food wrap, perforated to permit air exchange, and placed in a dark growth room which was maintained at 30° and 90% relative humidity. About 48 hours later, another 150 mL of 0.2 mM CaCl2 solution was added to each tray to maintain water sauration of the paper towels.
(§2) Two centimeter root sections were cut 0.5 to 2.5 cm from the tip of 3-day-old etiolated seedling roots. Batches of 20 (for corn and cotton), or 40 (for wheat, barley and rice) root sections were tied in cheesecloth bags, leaving a 20-30 cm length of string to facilitate movement between test solutions. Root tissue was washed at 30±1° by immersing the cheesecloth bags in a well-aerated 0.2 mM K2 HPO4 /KH2 PO4 solution, pH 6.0, for 4 hours. During the last 30 minutes of this washing period, 1 mM potassium nitrate solution was introduced to induce nitrate reductase activity. For uniformity, 100 mL washing solution was used for every bag of root sections (about 300 mg fresh tissue).
Nitrate ion uptake was measured using radioactive chlorate ion (^36 ClO3⊖) as a mimic for nitrate ion (Deane-Drummond et al., Plant Physiol. 70:50-54 (1982)). Uptake was measured by incubating 20 or 40 cheesecloth-bound washed root segments for 30 minutes in 100 mL absorption solution. The absorption solution contained 0.5 mM potassium nitrate, 0.2 mM calcium chloride, 5 mM MES buffer, and 5 mg/L sodium molybdate. This solution was adjusted to pH 6 with potassium hydroxide, and labeled with 10,000 cpm/ml of carrier-free radioactive chlorate ion. Absorption temperatures was maintained at 30±1° in a water bath, and moderate aeration was provided. All test compounds were added to the absorption solution. After the absorption period, the cheesecloth bag containing root sections was rinsed with distilled water for 10 seconds and then immersed in 100 mL of ice-cold, aerated 0.2 mM calcium chloride solution for 20 minutes to remove exchangeable components of absorbed ^36 ClO3⊖. Root sections were then removed from the cheesecloth bags, blotted dry, placed in a preweighed scintillation vial, and weighed to determine fresh tissue weight. One mL water and 10 mL Scinti Verse I (Fisher Scientific Co.) scintillation fluid were added, and radioactivity determined by scintillation counting. The rate of nitrate (^36 ClO3⊖) uptake in micromols per gram fresh weight of tissue per hour was calculated.
(§3) Test compounds are identified in Table I by Example number, and by the identity of substituents X, Y, Z and R in the following formula: [drawing 23]

corn root sections [2] = experiment: Nitrate ion uptake by corn root sections (nitrate ion specific electrode); assay type: cell-based, Corn (Pioneer Hybrid 3320); conditions: for Ion Uptake (percent increase over control) NO3-: 50 ppm test compound, corn root sections
Method: as §1, §2
(§4) Nitrate ion uptake into corn roots was also determined by homogenizing root segments previously exposed to the nitrate absorption solution (without added ^36 ClO3⊖) with a precooled glass homogenizer in 5 mL of cold extraction medium. This medium contained 23 mM phosphate buffer pH 8.8, 5 mM cysteine, 2.5 mM EDTA, and 0.1% Neutronyx 600 (Onyx Chemical Co., Jersey City, N.J.). The resulting homogenate was centrifuged at 30,000 xg for 15 minutes, and an aliquot of the resulting supernatant solution reserved for nitrate ion determination, using an Orion nitrate ion specific electrode. The same tissue extract was used for nitrate reductase activity determination (below).
as §3

rice root sections = experiment: Nitrate ion uptake by plant root sections, rice; assay type: cell-based, rice (m101)
Method: as §1
(§5) Two centimeter root sections were cut 0.5 to 2.5 cm from the tip of 3-day-old etiolated seedling roots. […]
(§6) Nitrate ion uptake was measured using radioactive chlorate ion (^36 ClO3⊖) as a mimic for nitrate ion (Deane-Drummond et al., Plant Physiol. 70:50-54 (1982)). Uptake was measured by incubating 20 or 40 cheesecloth-bound washed root segments for 30 minutes in 100 mL absorption solution. […] One mL water and 10 mL Scinti Verse I (Fisher Scientific Co.) scintillation fluid were added, and radioactivity determined by scintillation counting. The rate of nitrate (^36 ClO3⊖) uptake in micromols per gram fresh weight of tissue per hour was calculated.

cotton root sections = experiment: Nitrate ion uptake by plant root sections, cotton; assay type: cell-based, cotton (Tamcot SP-37)
Method: as §1, §5, §6

sorghum root sections = experiment: Nitrate ion uptake by plant root sections, sorghum; assay type: cell-based, sorghum (SC-599-6)
Method: as §1, §5, §6

NO3 Reductase = experiment: Nitrate reductase activity in extracts of treated corn root sections; assay type: cell-based, Corn (Pioneer Hybrid 3320); conditions: 50 ppm test compound
Method: as §1, §2
as §4, with “The same tissue extract was used for nitrate reductase activity determination (below).” left out
Nitrate reductase activity was determined using a modification of the procedure of Hageman and Huckles- by, Methods Enzymol. […]

barley root sections = experiment: Nitrate ion uptake by plant root sections, barley; assay type: cell-based, barley (CM-721)
Method: as §1, §5, §6

corn plants [3] = experiment: Field test, grain yield of nitrogen-stressed corn; assay type: in vivo, corn (Pioneer Hybrid 3535)
Method: Field tests were conducted by seeding corn (Pioneer Hybrid 3535) at a rate sufficient to obtain an excess plant population. The resulting population was thinned after emergence, 14 days after planting, to a density of about 64,000 plants per hectare, with plants about 20 cm apart in each row. The test population was subjected to severe nitrogen stress during development because only 67 kg nitrogen/hectare (60 lb/acre) were applied at planting. Nitrogen stress symptoms were apparent on lower plant leaves 32 days after emergence. Test compounds were applied to plants 34 days after emergence and 26 days prior to anthesis. Average canopy height at time of treatment was 85 cm. The treatments were applied from an acetone/water (1:3) solution with 0.2% added nonionic surfactant, using a hand-held nitrogen-pressurized sprayer. One day following treatment, an application of about 34 kg/ha (30 lb/acre) ammonium nitrate was broadcast on the ground and immediately worked into the root zone by irrigation.

wheat root sections = experiment: Nitrate ion uptake by plant root sections, wheat; assay type: cell-based, wheat (Arther)
Method: as §1, §5, §6

corn root sections [4] = experiment: Ammonium ion uptake by corn root sections (ammonium ion-specific electrode); assay type: cell-based, Corn (Pioneer Hybrid 3320); conditions: 50 ppm test compound
Method: as §1
Two centimeter root sections were cut 0.5 to 2.5 cm from the tip of 3-day-old etiolated seedling roots. Batches of 20 (for corn and cotton), or 40 (for wheat, barley and rice) root sections were tied in cheesecloth bags, leaving a 20-30 cm length of string to facilitate movement between test solutions. Root tissue was washed at 30±1° by immersing the cheesecloth bags in a well-aerated 0.2 mM K2 HPO4 /KH2 PO4 solution, pH 6.0, for 4 hours. […]
Ammonium ion uptake was determined by measuring the disappearance of ammonium ion from an uptake solution containing 1 mmol ammonium chloride, 0.2 mM calcium chloride and 5 mM MES buffer, pH 6.0, with an Orion ammonium ion-specific electrode. […]

corn plants [5] = experiment: Greenhouse test, growth of nitrate-deficient corn plants; assay type: in vivo; conditions: spray containing 50 ppm; 2-week old corn plants deficient in nitrate ion
Method: Greenhouse tests were conducted by germinating corn seeds in a 25.4 cm pot containing a commercial potting soil mixture. After two weeks, seedlings were culled, leaving two plants in each pot. Distilled water was applied to maintain moisture levels and to leach carry-over nutrients from the potting soil mixtures. The remaining corn plants were randomized and divided into several groups for testing. Each test plant received a single 10 ml application of a test compound at 50 ppm, which was applied from a hand-held air-pressurized sprayer while the plant was rotated on a turntable in a spray hood. Each test compound was dissolved in a solution containing 50% (by volume) water and 50% AGWT diluent. AGWT diluent contains acetone, glycerol, water and polyoxyethylene sorbitan monolaurate in a volumetric ratio of 459:20:500:1. 250 mL of a complete, nitrate ion-free, potassium ion-free, and phosphate ion-free Hoagland nutrient solution were added to each pot twice weekly. This nutrient solution was supplemented with distilled water to maintain proper soil moisture. […] Plants were allowed to grow to maturity and yields were measured at the conclusion of each test.

pKa = assay type: physicochemical; conditions: two values given

SMILES: Cc1ccc(COC(=O)N2CCC[C@H]2C(=O)N[C@H](CO)C(C)C)cc1 [Example 17, N-(p-Methylbenzyloxycarbonyl) -L-prolyl-L-valinol]
activation at 50 ppm (corn root sections [1]): 35%
Ion Uptake (percent increase over control) NO3- (corn root sections [2]): 39%

SMILES: CC[C@@H](CO)NC(=O)[C@@H]1CCCN1C(=O)OCc1ccccc1 [Example 6, N-Carbobenzoxy-L-prolyl-L-homoalaninol]
activation at 50 ppm (corn root sections [1]): 20%
Ion Uptake (percent increase over control) NO3- (corn root sections [2]): 24%

SMILES: C[C@@H](CO)NC(=O)[C@@H]1CCCN1C(=O)OCc1ccccc1 [Example 5, N-Carbobenzoxy-L-prolyl-L-alaninol]
activation at 50 ppm (corn root sections [1]): 20%

SMILES: CC(C)[C@@H](CO)NC(=O)[C@@H]1COCN1C(=O)OCc1ccccc1 [Example 12, N-Carbobenzoxy-L-γ-oxaprolyl-L-valinol]
Ion Uptake (percent increase over control) 36ClO3- (corn root sections [1]): 18%

SMILES: CC(C)[C@@H](CO)NC(=O)[C@@H]1CCCN1C(=O)OCc1ccccc1 [Example 2, N-Carbobenzoxy-L-prolyl-L-valinol]
Nitrate Ion Uptake (percent increase over control) (rice root sections; Rice root sections, 50 ppm): 10%
Nitrate ion uptake enhancement, in words (rice root sections; rice root tissues): insensitive
Nitrate Ion Uptake (percent increase over control) (cotton root sections; Cotton root sections, 50 ppm): -10%
Nitrate ion uptake enhancement, in words (cotton root sections; cotton root tissues): insensitive
activation at 50 ppm (corn root sections [1]): 56%
Nitrate Ion Uptake (percent increase over control) (sorghum root sections; Sorghum root sections, 50 ppm): -5%
Nitrate ion uptake enhancement, in words (sorghum root sections; sorghum root tissues): insensitive
NO3- Reductase (percent increase over control) (NO3 Reductase): 7%
Nitrate Ion Uptake (percent increase over control) (barley root sections; Barley root sections, 50 ppm): 75%
Nitrate ion uptake enhancement, in words (barley root sections; barley): Significant stimulation
Grain yield (average) (corn plants [3]; second round of field tests, 0.035, 0.07 and 0.14 kg/ha, controls average 321): 348 bushels/ha
Increase in grain yield (corn plants [3]; second round of field tests, application rates 0.035, 0.07 and 0.14 kg/ha, all three): 8-10%
Grain yield (corn plants [3]; sprayed with 500 ppm (0.14 kg/ha), field grown corn, control 232): 248 bushels/ha
Increase in grain yield (corn plants [3]; sprayed with 500 ppm (0.14 kg/ha), field grown corn, p=0.05, vs. control): 6.3%
Nitrate Ion Uptake (percent increase over control) (wheat root sections; Wheat root sections, 50 ppm): 55%
Nitrate ion uptake enhancement, in words (wheat root sections; wheat): Significant stimulation
Ion Uptake (percent increase over control) NH4+ (corn root sections [4]): 100%
Ion Uptake (percent increase over control) NO3- (corn root sections [2]): 65%
Nitrate Ion Uptake (percent increase over control) (corn root sections [2]; Corn root sections, 50 ppm): 65%
Nitrate ion uptake enhancement, in words (corn root sections [2]; corn): Significant stimulation
Optimal media concentration for stimulation of nitrate ion uptake (corn root sections [2]; immersed corn root sections, varying test concentrations): about 50 ppm

SMILES: CC[C@H](CO)NC(=O)[C@@H]1CCCN1C(=O)OCc1ccccc1 [Example 7, N-Carbobenzoxy-L-prolyl-D-homoalaninol]
activation at 50 ppm (corn root sections [1]): 40%
Ion Uptake (percent increase over control) NO3- (corn root sections [2]): 41%

SMILES: CC(C)[C@@H](CO)NC(=O)[C@@H]1[C@@H](C)OCN1C(=O)OCc1ccccc1 [Example 13, N-Carbobenzoxy-5R-methyloxazolidine-4S-carbonyl-L-valinol]
Ion Uptake (percent increase over control) 36ClO3- (corn root sections [1]): 20%

SMILES: CC(C)C[C@@H](CO)NC(=O)[C@@H]1CCCN1C(=O)OCc1ccccc1 [Example 1, N-Carbobenzoxy-L-prolyl-L-leucinol]
activation at 50 ppm (corn root sections [1]): 26%
NO3- Reductase (percent increase over control) (NO3 Reductase): -1%
Ion Uptake (percent increase over control) NH4+ (corn root sections [4]): 80%
Growth of corn plants (corn plants [5]): stimulated growth
Ion Uptake (percent increase over control) NO3- (corn root sections [2]): 40%

SMILES: CC(C)[C@H](CO)NC(=O)[C@H]1CCCN1C(=O)OCc1ccccc1 [Example 10, N-Carbobenzoxy-D-prolyl-D-valinol]
activation at 50 ppm (corn root sections [1]): 41%
Ion Uptake (percent increase over control) NO3- (corn root sections [2]): 36%

SMILES: O=C(NCCO)[C@@H]1CCCN1C(=O)OCc1ccccc1 [Example 4, N-Carbobenzoxy-L-prolyl-(β-hydroxyethyl)amide]
Ion Uptake (percent increase over control) 36ClO3- (corn root sections [1]): 24%
NO3- Reductase (percent increase over control) (NO3 Reductase): 4%
Ion Uptake (percent increase over control) NO3- (corn root sections [2]): 30%

pKa (pKa): 3.80 and 3.90
SMILES: O=C(O)[C@H]1COCN1C(=O)OCc1ccccc1 [3-Carbobenzoxy oxazolidine-4R-carboxylic acid]

pKa (pKa): 4.65 and 4.60
SMILES: C[C@H]1OCN(C(=O)OCc2ccccc2)[C@@H]1C(=O)O [3-carbobenzoxy-5R-methyloxazolidine-4S-carboxylic acid]

SMILES: CC(C)[C@@H](CO)NC(=O)[C@@H]1CCCN1C(=O)OCc1ccc(F)cc1 [Example 15, N-(4-Fluorobenzyloxycarbonyl)-L-prolyl-L-valinol]
activation at 50 ppm (corn root sections [1]): 35%
Ion Uptake (percent increase over control) NO3- (corn root sections [2]): 30%

SMILES: CC(C)[C@H](CO)NC(=O)[C@@H]1CCCN1C(=O)OCc1ccccc1 [Example 8, N-Carbobenzoxy-L-prolyl-D-Valinol]
activation at 50 ppm (corn root sections [1]): 12%

SMILES: CC(C)[C@@H](CO)NC(=O)[C@H]1CCCN1C(=O)OCc1ccccc1 [Example 9, N-Carbobenzoxy-D-prolyl-L-valinol]
activation at 50 ppm (corn root sections [1]): 37%

pKa (pKa): 4.35 and 4.30
SMILES: O=C(O)[C@@H]1COCN1C(=O)OCc1ccccc1 [3-Carbobenzoxyoxazolidine-4S-carboxylic acid]

SMILES: CC(C)[C@@H](CO)NC(=O)[C@@H]1CCCN1C(=O)OCc1ccc(Cl)cc1 [Example 16, N-(p-Chlorobenzyloxycarbonyl) -L-prolyl-L-valinol]
activation at 50 ppm (corn root sections [1]): 14%
